US20070196349A1, “Whitening composition containing reduced coenzyme Q” (KANEKA CORPORATION, priority 2004, published 2007)
Marks after values point to notes of the source that are not given here.

What was measured:
[1] = test system: Normal human dermal fibroblasts (NHDF); test: Cell activation-promoting effect in dermal fibroblasts (cellular ATP level); assay type: cell-based; conditions: for ATP level: 48 hours culture with sample
Method: Normal human dermal fibroblasts (NHDF: product of Kurabo Industries, Ltd.) were incubated in the basal medium Medium 106S (product of Kurabo Industries, Ltd.) supplemented with 2% fetal bovine serum, 10 μg/ml of heparin, 1 μg/ml of hydrocortisone, 10 ng/ml of human recombinant epidermal growth factor, and 3 ng/ml of human recombinant basic fibroblast growth factor under conditions of 37° C. and 5% CO2. After confluence, the cells were seeded onto a 96-well microplate (2.0×10^3 cells/well). In seeding, Medium 106S (product of Kurabo Industries, Ltd.) supplemented with 2% fetal bovine serum, 10 μg/ml of heparin, and 1 μg/ml of hydrocortisone was used. After 24 hours culture, the medium was exchanged to the same medium supplemented with a sample specimen in order to further culture for 48 hours. After that, the medium was removed and then the cells were rinsed with PBS, and cellular ATP level was determined using ATP assay kit (product of PerkinElmer) for comparison. The parametrical multiple comparison (Turkey type) was carried out in statistical processing, and the symbol “*” refers that the percentage of risk is less than 5%, and the symbol “**” refers that the percentage of risk is less than 1%, in comparison with the control group containing solvent only. In addition, the symbol “†” at the numerical value refers that the percentage of risk is less than 5% in comparison with oxidized coenzyme Q10.

[2] = test system: Normal human dermal fibroblasts (NHDF); test: Effect for protecting cells from oxidation stress in dermal fibroblasts (cellular ATP level after hydrogen peroxide); assay type: cell-based; conditions: for ATP level: 1 mM hydrogen peroxide for 15 minutes
Method: Normal human dermal fibroblasts (NHDF: product of Kurabo Industries, Ltd.) were incubated in the basal medium Medium 106S (product of Kurabo Industries, Ltd.) supplemented with 2% fetal bovine serum, 10 μg/ml of heparin, 1 μg/ml of hydrocortisone, 10 ng/ml of human recombinant epidermal growth factor, and 3 ng/ml of human recombinant basic fibroblast growth factor under conditions of 37° C. and 5% CO2. After confluence, the cells were seeded onto a 96-well microplate (2.0×10^3 cells/well). In seeding, Medium 106S (product of Kurabo Industries, Ltd.) supplemented with 2% fetal bovine serum, 10 μg/ml of heparin, and 1 μg/ml of hydrocortisone was used. After 24 hours culture, the medium was exchanged to the same medium supplemented with a sample specimen, and after 24 hours, it was exchanged to Medium 106S (product of Kurabo Industries, Ltd.) supplemented with 2% fetal bovine serum, 10 μg/ml of heparin, 1 μg/ml of hydrocortisone, 7.5 μg/ml of coenzyme A, and a sample specimen in order to further culture for 48 hours. After that, the medium was removed to be exchange to the medium supplemented with 1 mM hydrogen peroxide (product of Wako Pure Chemical Industries), and then the cells were incubated for 15 minutes followed by rinsing with PBS, and cellular ATP level was determined using ATP assay kit (product of PerkinElmer) for comparison. The parametrical multiple comparison (Turkey type) was carried out in statistical processing, and the symbol “†” refers that the percentage of risk is less than 5% in comparison with the control group containing solvent only.

brown guinea pigs = test: Inhibitory effect on pigmentation due to ultraviolet radiation; assay type: in vivo, guinea pig; conditions: average of scores (Table 1) of six brown guinea pigs, #=(L1−L0)−(L′1−L′0), sample vs medium, UVB-irradiated dorsal skin, polyethylene glycol ointment containing 10 parts by weight of reduced coenzyme Q10 applied once a day for one month
Method: The dorsal hair of six brown guinea pigs was carefully shaved with a clipper or shaver, and the shaved dorsal skin of each guinea pig was irradiated with ultraviolet beams (UVB: wavelength 250 to 350 nm) in the minimum erythema dose at two square portions of 2 cm′2 cm on the right and left of the dorsal median. The ultraviolet irradiation was performed once every other day for three days to induce erythema. Also, a medium and a sample were continuously applied to the respective irradiated portions (erythema portions) once a day for one month to examine the inhibitory action on pigmentation. As the sample, a polyethylene glycol ointment containing 10 parts by weight of reduced coenzyme Q10 was used. As the medium, only polyethylene glycol was used. Evaluation was performed by measurement with a color-difference meter, and an L value was calculated from the observed Munsell value.
Namely, DL (change with time) of the medium-applied portion was subtracted from DL (change with time) of the opposite sample-applied portion to obtain a value (#) according to the following equation: #=(L1−L0)−(L′1−L′0)
L0: Test portion before application of the sample
L′0: Test portion before application of the medium
L1: Sample-applied test portion one month after continuous application
L′1: Medium-applied test portion one month after continuous application […]

Row | SMILES | ATP level ([1]; 0.12 μg/ml) | ATP level ([1]; 0.98 μg/ml) | cellular ATP level compared with the solvent control ([1]; result in words) | cellular ATP level, reduced compared with oxidized coenzyme Q10 ([1]; result in words) | ATP level ([2]; 8.13 μg/ml) [nM] | ATP level ([2]; 100 μg/ml) [nM] | cellular ATP level compared with the solvent control ([2]; 100 μg/ml, hydrogen peroxide oxidation stress, result in words) | Average evaluation score (brown guinea pigs) | Average evaluation score (brown guinea pigs; listed as reduced coenzyme Q10)
1 | COc1c(O)c(C)c(C/C=C(\C)CC/C=C(\C)CC/C=C(\C)CC/C=C(\C)CC/C=C(\C)CC/C=C(\C)CC/C=C(\C)CC/C=C(\C)CC/C=C(\C)CCC=C(C)C)c(O)c1OC [Reduced coenzyme Q10, reduced coenzyme Q10] | 277.21 ± 46.02**† nM | 267.24 ± 20.72** nM | significantly increase the cellular ATP level | significantly increase the cellular ATP level | 73.93 ± 4.96 | 112.47 ± 5.45 | significantly increase the cellular ATP level | 2.17 | 2 (0 ≦ # < 0.5)
2 | COC1=C(OC)C(=O)C(C/C=C(\C)CC/C=C(\C)CC/C=C(\C)CC/C=C(\C)CC/C=C(\C)CC/C=C(\C)CC/C=C(\C)CC/C=C(\C)CC/C=C(\C)CCC=C(C)C)=C(C)C1=O [Oxidized coenzyme Q10, oxidized coenzyme Q10, reference compound] | 183.23 ± 62.70 nM | 224.84 ± 43.55* nM | significantly increase the cellular ATP level | – | 82.29 ± 9.08 | 103.41 ± 1.17 | – | – | –
